# Read-outs that look alike come from different tables or passages of the source.
# How the values were obtained:
# [1] = in vivo; conditions: Indian, rhesus monkey
# Description: (§1) CAB LA (200 mg/mL injectable stock aqueous suspension) was given at a dose of 50 mg kg^−1 under anesthesia by intramuscular injection into the quadriceps. Volumes greater than 1.0 mL were divided into two injection sites.
# [2] = for Median CAB: plasma, median of treated macaques
# Description: as §1
# [3] = tested on: SIV integrase G118R/A122T (SIV IN RTV pseudovirus); format: cell-based; conditions: G118R/A122T SIV integrase mutant
# [4] = tested on: SIV integrase G118R (SIV IN RTV pseudovirus); format: cell-based; conditions: G118R SIV integrase mutant
structure (smiles),measurement,setting,value
"C[C@H]1CO[C@@H]2Cn3cc(C(=O)NCc4ccc(F)cc4F)c(=O)c(O)c3C(=O)N12 [CAB, cabotegravir]",half-life,[1],10.7 days
same,time after which plasma CAB was below the limit of detection of the assay,[2]; four of the six animals,115 to 176 days
same,Plasma CAB concentration,"[2]; macaque 01D520, day 18",11.2 µg/mL
same,Plasma CAB concentration,"[2]; macaque 01D520, day 25",7.1 µg/mL
same,Plasma CAB concentration,"[2]; macaque 01D520, day 32",2.24 µg/mL
same,Plasma CAB concentration,"[2]; macaque 01D520, day 39",0.239 µg/mL
same,Plasma CAB concentration,"[2]; macaque 01D520, day 46",6.87 µg/mL
same,Plasma CAB concentration,"[2]; macaque 01D520, day 53",5.88 µg/mL
same,Plasma CAB concentration,"[2]; macaque 01D520, day 57",4.57 µg/mL
same,Plasma CAB concentration,"[2]; macaque 01D520, day 67",0.943 µg/mL
same,Plasma CAB concentration,"[2]; macaque 01D520, day 74",6.2 µg/mL
same,Plasma CAB concentration,"[2]; macaque 01D520, day 81",4.17 µg/mL
same,Plasma CAB concentration,"[2]; macaque 01D520, day 88",2.42 µg/mL
same,Plasma CAB concentration,"[2]; macaque 01D520, day 95",0.992 µg/mL
same,Plasma CAB concentration,"[2]; macaque 01D520, day 102",0.432 µg/mL
same,Plasma CAB concentration,"[2]; macaque 01D520, day 106",0.273 µg/mL
same,Plasma CAB concentration,"[2]; macaque 10D181, day 18",3.2 µg/mL
same,Plasma CAB concentration,"[2]; macaque 10D181, day 25",3.88 µg/mL
same,Plasma CAB concentration,"[2]; macaque 10D181, day 32",2.79 µg/mL
same,Plasma CAB concentration,"[2]; macaque 10D181, day 39",1.33 µg/mL
same,Plasma CAB concentration,"[2]; macaque 10D181, day 46",3.45 µg/mL
same,Plasma CAB concentration,"[2]; macaque 10D181, day 53",5.06 µg/mL
same,Plasma CAB concentration,"[2]; macaque 10D181, day 57",3.47 µg/mL
same,Plasma CAB concentration,"[2]; macaque 10D181, day 67",1.51 µg/mL
same,Plasma CAB concentration,"[2]; macaque 10D181, day 74",2.76 µg/mL
same,Plasma CAB concentration,"[2]; macaque 10D181, day 81",3.57 µg/mL
same,Plasma CAB concentration,"[2]; macaque 10D181, day 88",2.78 µg/mL
same,Plasma CAB concentration,"[2]; macaque 10D181, day 95",1.5 µg/mL
same,Plasma CAB concentration,"[2]; macaque 10D181, day 102",0.454 µg/mL
same,Plasma CAB concentration,"[2]; macaque 10D181, day 106",0.227 µg/mL
same,Plasma CAB concentration,"[2]; macaque 33996, day 18",5.68 µg/mL
same,Plasma CAB concentration,"[2]; macaque 33996, day 25",6.38 µg/mL
same,Plasma CAB concentration,"[2]; macaque 33996, day 32",4.05 µg/mL
same,Plasma CAB concentration,"[2]; macaque 33996, day 39",3.3 µg/mL
same,Plasma CAB concentration,"[2]; macaque 33996, day 46",5.86 µg/mL
same,Plasma CAB concentration,"[2]; macaque 33996, day 53",9.39 µg/mL
same,Plasma CAB concentration,"[2]; macaque 33996, day 57",9.76 µg/mL
same,Plasma CAB concentration,"[2]; macaque 33996, day 67",1.4 µg/mL
same,Plasma CAB concentration,"[2]; macaque 33996, day 74",4.57 µg/mL
same,Plasma CAB concentration,"[2]; macaque 33996, day 81",6.04 µg/mL
same,Plasma CAB concentration,"[2]; macaque 33996, day 88",3.04 µg/mL
same,Plasma CAB concentration,"[2]; macaque 33996, day 95",1.43 µg/mL
same,Plasma CAB concentration,"[2]; macaque 33996, day 102",0.816 µg/mL
same,Plasma CAB concentration,"[2]; macaque 33996, day 106",0.611 µg/mL
same,Plasma CAB concentration,"[2]; macaque 35451, day 18",6.34 µg/mL
same,Plasma CAB concentration,"[2]; macaque 35451, day 25",4.47 µg/mL
same,Plasma CAB concentration,"[2]; macaque 35451, day 32",1.84 µg/mL
same,Plasma CAB concentration,"[2]; macaque 35451, day 39",0.819 µg/mL
same,Plasma CAB concentration,"[2]; macaque 35451, day 46",2.55 µg/mL
same,Plasma CAB concentration,"[2]; macaque 35451, day 53",4.01 µg/mL
same,Plasma CAB concentration,"[2]; macaque 35451, day 57",6.17 µg/mL
same,Plasma CAB concentration,"[2]; macaque 35451, day 67",3.19 µg/mL
same,Plasma CAB concentration,"[2]; macaque 35451, day 74",4.1 µg/mL
same,Plasma CAB concentration,"[2]; macaque 35451, day 81",2.89 µg/mL
same,Plasma CAB concentration,"[2]; macaque 35451, day 88",3.28 µg/mL
same,Plasma CAB concentration,"[2]; macaque 35451, day 95",2.43 µg/mL
same,Plasma CAB concentration,"[2]; macaque 35451, day 102",2.21 µg/mL
same,Plasma CAB concentration,"[2]; macaque 35451, day 106",1.25 µg/mL
same,Plasma CAB concentration,"[2]; macaque CH54, day 18",5.12 µg/mL
same,Plasma CAB concentration,"[2]; macaque CH54, day 25",5.14 µg/mL
same,Plasma CAB concentration,"[2]; macaque CH54, day 32",3.53 µg/mL
same,Plasma CAB concentration,"[2]; macaque CH54, day 39",1.14 µg/mL
same,Plasma CAB concentration,"[2]; macaque CH54, day 46",2.99 µg/mL
same,Plasma CAB concentration,"[2]; macaque CH54, day 53",2.32 µg/mL
same,Plasma CAB concentration,"[2]; macaque CH54, day 57",3.27 µg/mL
same,Plasma CAB concentration,"[2]; macaque CH54, day 67",4.33 µg/mL
same,Plasma CAB concentration,"[2]; macaque CH54, day 74",5.39 µg/mL
same,Plasma CAB concentration,"[2]; macaque CH54, day 81",5.03 µg/mL
same,Plasma CAB concentration,"[2]; macaque CH54, day 88",3.45 µg/mL
same,Plasma CAB concentration,"[2]; macaque CH54, day 95",1.97 µg/mL
same,Plasma CAB concentration,"[2]; macaque CH54, day 102",1.41 µg/mL
same,Plasma CAB concentration,"[2]; macaque CH54, day 106",0.707 µg/mL
same,Plasma CAB concentration,"[2]; macaque CJ92, day 18",6.99 µg/mL
same,Plasma CAB concentration,"[2]; macaque CJ92, day 25",3.55 µg/mL
same,Plasma CAB concentration,"[2]; macaque CJ92, day 32",3.13 µg/mL
same,Plasma CAB concentration,"[2]; macaque CJ92, day 39",2.92 µg/mL
same,Plasma CAB concentration,"[2]; macaque CJ92, day 46",3.62 µg/mL
same,Plasma CAB concentration,"[2]; macaque CJ92, day 53",2.88 µg/mL
same,Plasma CAB concentration,"[2]; macaque CJ92, day 57",3.47 µg/mL
same,Plasma CAB concentration,"[2]; macaque CJ92, day 67",3.7 µg/mL
same,Plasma CAB concentration,"[2]; macaque CJ92, day 74",5.46 µg/mL
same,Plasma CAB concentration,"[2]; macaque CJ92, day 81",6.56 µg/mL
same,Plasma CAB concentration,"[2]; macaque CJ92, day 88",4.022 µg/mL
same,Plasma CAB concentration,"[2]; macaque CJ92, day 95",1.93 µg/mL
same,Plasma CAB concentration,"[2]; macaque CJ92, day 102",1.54 µg/mL
same,Plasma CAB concentration,"[2]; macaque CJ92, day 106",0.994 µg/mL
same,Median CAB,[2]; day 18,6.01 µg/mL
same,Median CAB,[2]; day 25,4.805 µg/mL
same,Median CAB,[2]; day 32,2.96 µg/mL
same,Median CAB,[2]; day 39,1.235 µg/mL
same,Median CAB,[2]; day 46,3.535 µg/mL
same,Median CAB,[2]; day 53,4.535 µg/mL
same,Median CAB,[2]; day 57,4.02 µg/mL
same,Median CAB,[2]; day 67,2.35 µg/mL
same,Median CAB,[2]; day 74,4.98 µg/mL
same,Median CAB,[2]; day 81,4.6 µg/mL
same,Median CAB,[2]; day 88,3.16 µg/mL
same,Median CAB,[2]; day 95,1.715 µg/mL
same,Median CAB,[2]; day 102,1.113 µg/mL
same,Median CAB,[2]; day 106,0.659 µg/mL
same,CAB in plasma at the last measurement on day 204,[2]; remaining two animals,detectable
same,fold-change relative to wild type integrase,[3],> 840 fold
same,fold-change relative to wild type integrase,[4],> 840 fold

# Reference: article PMC6494879, “Drug resistance emergence in macaques administered cabotegravir long-acting for pre-exposure prophylaxis during acute SHIV infection” (Nature Communications, 2019)
